This is an account of results in PMC12114947, “Evaluation of Violacein Metabolic Stability and Metabolite Identification in Human, Mouse, and Rat Liver Microsomes” (Pharmaceutics, 2025).

This series can be described thus: Identification of violacein metabolites in RLMs by LC-QTOF. The conditions noted are these: all samples after 120 min of reaction, 105 µM violacein, 5 mg/mL protein. In kind it is in vitro ADME, rat. The procedure: The metabolism of violacein was investigated using HLMs and RLMs, by incubating the samples for 120 min under four conditions (n = 1): zero sample, phase I-only incubation, phase I and II incubation, and phase II-only incubation, as described by Godoi et al..
For all samples, 25 µL of the 843 µM violacein stock solution was added to propylene tubes and evaporated to dryness under a nitrogen stream. The dried residue was then reconstituted with 2 µL of methanol, ensuring that the final organic solvent concentration remained below 1% to minimize any potential impact on microsomal activity, as described by Jia et al..
To assess phase I metabolism, 148 μL of an NADPH-regenerating system containing 1.1 mM NADP+, 10 mM glucose-6-phosphate, 1 U/mL glucose-6-phosphate dehydrogenase, 5 mM sodium citrate, and 66 mM magnesium chloride in 100 mM phosphate buffer (pH 7.4) were added to the tubes. The solutions were pre-incubated for 5 min at 37 °C and 300 rpm in an MTC 100 thermo shaker incubator, and metabolic reactions were initiated by adding 50 μL of HLMs or RLMs (20 mg/mL), to yield final concentrations of 105 µM violacein and 5 mg of microsomal protein/mL. […]
The acquired chromatograms and mass spectra were analyzed using Insight Explore software version 1.0.0.0 (Shimadzu, Kyoto, Japan). […]

For `O=C1NC(c2c[nH]c3ccc(O)cc23)=C/C1=C1\C(=O)Nc2ccccc21` [violacein], the Violacein metabolized result is recorded as “Approximately 50%”.
